Here are results for 1 compound from PMC6760105, “Construction of a novel quinoxaline as a new class of Nrf2 activator” (BMC Chemistry, 2019).

Each structure is given as a SMILES string.

The subject of data set [1] is RAW 264.7 cells. In words: MTT cell viability assay. The data set is classed as cell-based, mouse. The note with it: for cytotoxic effects on RAW 264.7 cells (MTT): LPSEc stimulated. How it is done:
(§1) Murine macrophages, cell line: RAW 264.7 was procured from ATCC, USA. The macrophage cells were grown and cultured in Dulbecco’s Modified Eagle Medium (DMEM) supplemented with 10% Fetal Bovine serum (FBS) and 1% PenStrep and incubated in a 5% CO2 at 37 °C incubator. Cells from passages 10 to 20 were used for subsequent experiments.
A calorimetric agent (3-(4,5-Dimethylthiazol-2-yl)-2,5-Diphenyltetrazolium Bromide) (MTT) was used to as an assay to determine cell viability after being exposed to NQC. RAW 264.7 cells were seeded in a 96-well microplate at 3 × 10^5 cells/well and were allowed to grow and adhere for 24 h in a 37 °C, 5% CO2 incubator. NQC was dissolved in DMSO and diluted with PBS to produce the required test concentrations (100, 50, 25, 12.5, 6.25 and 3.125 µM). The negative control is 0.1% (v/v) DMSO, which is the maximum effective concentration of DMSO in a well. The cells were treated with either NQC or 0.1% (v/v) DMSO for 4 h followed by 1 µg/mL LPSEc and incubated further for 20 h. MTT solution was added at 100 µL per well under dark condition and the cells were incubated further for 4 h. Upon completion of incubation, the contents in all wells were aspirated and DMSO was added at 100 µL per well. The absorbance was measured at 570 nm using Molecular Devices Spectramax M3 Multi-Mode microplate reader; Sunnyvale, CA, USA. The cells without any treatment was used as a control. MTT assay was performed in triplicate. The percent cell viability is calculated using the following equation: PercentCellViabilty=AbsorbanceofVehicleorTD-1treatedgroupwell/AbsorbanceofControlwell×100.

Data set [2] relates to RAW 264.7 cells. In words: Nitric oxide (nitrite) production, Griess reagent, LPSEc stimulated cells. The class given is cell-based. The conditions noted are these: Mus musculus, RAW264.7; LPSEc (1 µg/mL) stimulated RAW 264.7 cells; 4 h pretreatment, 20 h LPS; read-out: IC50, NO production. How it is done:
as §1
RAW 264.7 cells were seeded in a 96-well microplate at 3 × 10^5 cells/well with complete media. The cells were allowed grow and adhere for 24 h. The cells were treated with NQC (50, 25, 12.5, 6.25 and 3.125 µM) and negative control (0.1% v/v DMSO in water) for 4 h prior to LPSEc (1 µg/mL) and allowed to incubate for 20 h at 37 °C, 5% CO2 incubator. Nitrite exist as a stable metabolite of nitric oxide, thus nitrite present in the supernatant was quantitatively measured as a chemical marker of nitric oxide (NO) production using Griess reagent (Promega, USA; 0.1% naphthylethylenediamine dihydrochloride and 1% sulfanilamide in 2.5% phosphoric acid). This assay was carried out following the manufacturer’s protocol where 100 µL of cell supernatant sample was incubated with 100 µL of Griess reagent at room temperature for 10 min and the absorbance at 540 nm was measured using Molecular Devices Spectramax M3 Multi-Mode microplate reader. […]
In general terms: The Griess reaction detects nitrite, a stable product of nitric oxide.

The subject of data set [3] is RAW 264.7 cells. The experiment in a line: IL-1β production, ELISA, LPSEc stimulated cells. The class given is cell-based. The conditions noted are these: Mus musculus, RAW264.7, LPSEc (1 µg/mL) stimulated RAW 264.7 cells. Here is the method: as §1
(§2) Production of IL-1β, IL-6, PGE2− and TNF-α in RAW 264.7 cells were quantitatively measured using an enzyme-linked immunosorbent assay (ELISA). The cells were incubated with 0.1% DMSO or NQC for 4 h, then stimulated with LPSEc, 1 µg/mL, for 20 h. The production of pro-inflammatory cytokines (IL-1β, IL-6) and TNF-α were determined using commercial ELISA kit (RayBio) according to the manufacturer’s instructions in product insert. The absorbance was measured at 540 nm. All the experiments were performed in triplicate.
(An ELISA detects its analyte on a solid surface through an enzyme-linked reagent.)

Data set [4] relates to RAW 264.7 cells. In words: IL-6 production, ELISA, LPSEc stimulated cells. The data set is classed as cell-based. The note with it: Mus musculus, RAW264.7, LPSEc (1 µg/mL) stimulated RAW 264.7 cells. How it is done: as §1, §2
Data set [5] has as its system RAW 264.7 cells. The experiment in a line: TNF-α production, ELISA, LPSEc stimulated cells. The data set is classed as cell-based. The note with it: Mus musculus, RAW264.7, LPSEc (1 µg/mL) stimulated RAW 264.7 cells. Here is the method: as §1, §2
Data set [6] has as its system RAW 264.7 cells. The experiment in a line: PGE2 production, ELISA, LPSEc stimulated cells. The class given is cell-based. The note with it: Mus musculus, RAW264.7, LPSEc (1 µg/mL) stimulated RAW 264.7 cells. Here is the method: as §1, §2
In data set [7] the target is T1, Nrf2-Keap1 interaction (Homo sapiens, UniProt Q14145).
T1 construct: purchased BPS Bioscience, USA
In words: Keap1:Nrf2 Inhibitor Screening Assay Kit (Nrf2 activation assay). The data set is classed as binding. The conditions noted are these: fluorescence λex 485 nm, λem 530 nm; 100 µM to 1 nM; read-out: IC50, inhibition of Nrf2-Keap1 interaction. Here is the method:
The Nrf2 activation by NQC was determined using ‘Keap1:Nrf2 Inhibitor Screening Assay Kit’ (BPS Bioscience, USA) following the instructions in product insert. The NQC was dissolved in DMSO and diluted with assay buffer provided in the kit to produce the concentrations range, 100 µM to 1 nM. The fluorescence of the solutions in each well of 96-well plate was measured at λex 485 nm and λem 530 nm. The dose–response curve was constructed plotting percent reduction in Kepa1-Nrf2 binding activity versus log concentration of NQC. From dose–response curve IC50 value was calculated.

A short description of data set [8]: Microsomal metabolic stability, human liver microsomes. The data set is classed as in vitro ADME. The conditions noted are these: NQC 1 µM. How it is done:
(§3) A stock solution (SS) of NQC at 1 mM was prepared using 100% dimethyl sulfoxide. Working solution of 10 μM was further prepared by dilution of SS with 25% ACN and 50 mM tris–HCl buffer (pH 7.4). In a 96-well plate, NQC (effective concentration:1 µM) was incubated with phosphate buffer (pH7.4) and 0.5 mg/mL of liver microsomes (human, rat and mouse) at 37 °C in an incubation. Each NQC incubation with liver microsomes was performed in triplicates. The microsomal metabolic reaction was initiated by the addition of co-factor, NADPH (5 mM). Samples following the allotted time-point was drawn and quenched into a solution of acetonitrile containing 50 ng/mL internal standard. The sample was analysed by a developed HPLC method that has been validated for lower limit of quantification, linearity, precision, selectivity and accuracy according to FDA guidance.
(§4) Half-life of NQC was calculated using the equation: T1/2=0.693/K.
(§5) The in vitro microsomal intrinsic clearance (CLint) was calculated based on the equation below: Clint=0.693/invitrot(1/2)×mlincubation/mgmicrosome×52.5mgmicrosome/gliver×[…].
In general terms: Microsomes from liver hold many membrane-bound enzymes, among them those of drug oxidation.

Data set [9] in a line: Microsomal metabolic stability, rat liver microsomes. The data set is classed as in vitro ADME. The note with it: NQC 1 µM. Here is the method: as §3, §4, §5
Data set [10] in a line: Microsomal metabolic stability, mouse liver microsomes. The class given is in vitro ADME. The note with it: NQC 1 µM. How it is done:
as §3, §4, §5

T1 sequence (Q14145 whole entry): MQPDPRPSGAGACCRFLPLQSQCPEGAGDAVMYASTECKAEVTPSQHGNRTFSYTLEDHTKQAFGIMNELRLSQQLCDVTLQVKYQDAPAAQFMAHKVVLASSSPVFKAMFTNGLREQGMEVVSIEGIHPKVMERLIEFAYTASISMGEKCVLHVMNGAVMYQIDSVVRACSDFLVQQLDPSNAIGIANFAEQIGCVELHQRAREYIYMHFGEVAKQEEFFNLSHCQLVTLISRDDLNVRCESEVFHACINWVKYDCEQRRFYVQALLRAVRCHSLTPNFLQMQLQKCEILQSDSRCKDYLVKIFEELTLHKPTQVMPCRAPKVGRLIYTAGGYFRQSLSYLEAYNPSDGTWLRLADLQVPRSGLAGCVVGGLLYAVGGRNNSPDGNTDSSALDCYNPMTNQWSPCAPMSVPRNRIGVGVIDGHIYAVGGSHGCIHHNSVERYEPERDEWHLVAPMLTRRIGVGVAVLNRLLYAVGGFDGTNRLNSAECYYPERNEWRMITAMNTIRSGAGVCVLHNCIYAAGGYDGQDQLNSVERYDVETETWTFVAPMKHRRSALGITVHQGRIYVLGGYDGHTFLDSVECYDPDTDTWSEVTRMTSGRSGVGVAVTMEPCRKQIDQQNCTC

In general, IC50 refers to the midpoint of a concentration-inhibition curve. As a reminder, the half-life is the time needed for the level to fall by half in the phase considered. `O=C(NNC(=O)c1cnc2ccccc2n1)c1cccnc1` [NQC, N′-(Pyridine-3-carbonyl)quinoxaline-2-carbohydrazide]: the “cytotoxic effects on RAW 264.7 cells (MTT)” value is reported as “significant toxicity” in [1] (100 µM, P < 0.05) and “do not show cytotoxic effects” in data set [1] (3.125–50 µM, P > 0.05). In addition, the “toxicity on RAW 264.7 cells” value in data set [1] (dose of 50 µM) was “non-toxic”. Besides, the IC50 came to 26.1 ± 1.17 µM in data set [2]; 13.3 ± 2.37 µM in data set [3]; 10.1 ± 0.58 µM in data set [4]; 14.4 ± 1.83 µM in data set [5]; 15.2 ± 0.91 µM in [6]; 4.21 ± 0.89 µM in data set [7]. Also, the results for the Rate of metabolism in data set [8] (human liver microsomes), in [9] (rat liver microsomes) and in data set [10] (mouse liver microsomes) were 0.011 min⁻¹, 0.013 min⁻¹ and 0.028 min⁻¹, respectively. In addition, the microsomal intrinsic clearance (CLint) worked out at 1.14 ± 0.31 mL/min/g liver in data set [8] (human liver microsomes), 1.39 ± 0.87 mL/min/g liver in [9] (rat liver microsomes) and 2.96 ± 0.34 mL/min/g liver in data set [10] (mouse liver microsomes). Moreover, the “mCint (microsomal intrinsic clearance)” value in [8] (human liver microsomes, Table 1) is given as 1.14 ± 0.31 mL/min/g liver; in data set [9] (rat liver microsomes, Table 1), 1.39 ± 0.87 mL/min/g liver; in [10] (mouse liver microsomes, Table 1), 2.96 ± 0.34 mL/min/g liver. Besides, the half-life at 1 µM in data set [8] (pH 7.4, human liver microsomes 0.5 mg/mL, NADPH, 37 °C) was found to be 63.3 ± 1.73 min; in [9] (rat, liver microsomes, pH 7.4, rat liver microsomes 0.5 mg/mL, NADPH, 37 °C), 52.3 ± 0.81 min; in data set [10] (pH 7.4, mouse liver microsomes 0.5 mg/mL, NADPH, 37 °C), 24.6 ± 1.13 min. The same compound returned a T1/2 in [9] (rat liver microsomes 0.5 mg/mL, NADPH, 37 °C) of 52.23 ± 0.81 min.
